Results published in PMC6158189, “A pharmacological probe identifies cystathionine β-synthase as a new negative regulator for ferroptosis” (Cell Death & Disease, 2018).
“Also recorded” adds a separate entry of the source.

Legend:
hCBS = molecular target: T1, hCBS (Homo sapiens, UniProt P35520); experiment: rapid dilution reversibility experiment; type: biochemical; conditions: 10 μM, 40 min pre-incubation with 20 μM hCBS, 200-fold dilution
T1 construct: GST (N); made in house; host or cells: E. coli BL21
T1 sequence (P35520 1-551): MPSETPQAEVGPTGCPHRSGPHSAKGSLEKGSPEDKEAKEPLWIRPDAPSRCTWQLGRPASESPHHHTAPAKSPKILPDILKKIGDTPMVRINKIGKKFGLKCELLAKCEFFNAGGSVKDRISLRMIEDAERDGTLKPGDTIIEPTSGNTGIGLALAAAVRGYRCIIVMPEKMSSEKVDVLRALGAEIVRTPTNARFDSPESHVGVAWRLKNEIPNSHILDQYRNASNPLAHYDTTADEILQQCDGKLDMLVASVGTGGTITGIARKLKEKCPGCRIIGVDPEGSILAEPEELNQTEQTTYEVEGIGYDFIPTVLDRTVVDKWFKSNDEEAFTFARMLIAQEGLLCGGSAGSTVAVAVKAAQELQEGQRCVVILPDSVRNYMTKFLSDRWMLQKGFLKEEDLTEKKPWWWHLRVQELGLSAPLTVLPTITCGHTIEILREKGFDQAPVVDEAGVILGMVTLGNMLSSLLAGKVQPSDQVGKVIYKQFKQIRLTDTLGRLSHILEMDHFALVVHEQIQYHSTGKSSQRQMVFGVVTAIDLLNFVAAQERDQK
Protocol: (§1) Figure S2. The mode of action of CH004 in inhibiting hCBS. […] After incubation with DMSO or CH004 at 10 μM for 40 min, hCBS (20 μM) was diluted 200-fold and the activity was measured according to the standard assay protocol (Materials and Methods). The data are presented as percentages of control (CTR; DMSO, 100%) and shown as means ± SDs (n = 5). The effects of 0.05 and 10 μM CH004 on hCBS (100 nM) without pre-incubation were defined as positive control (PC) and negative control (NC), respectively. (B) Inhibition of hCBS by CH004 as a function of PLP concentration with Cys (20 mM) together with Hcys (10 mM) as substrates (non-competitive inhibition constant αKi=15.2 ± 4.9 μM). (C) Inhibition of hCBS by CH004 as a function of Cys concentration in the presence of 100 μM PLP and the absence of Hcys (mixed inhibition constant αKi=26.4 ± 8 μM). (D) Inhibition of hCBS by CH004 as a function of Hcys concentration in the presence of 20 mM Cys and 100 μM PLP (mixed inhibition constant αKi’=7.2 ± 1.6 μM). Each point in the Lineweaver-Burk plots represents the means of triplicate. The αKi or αKi’ values were calculated by using the non-linear fitting method for enzyme kinetics in GraphPad Prism 5. (E) Surface Plasmon Resonance assays analysis of the binding of CH004 to hCBS. […] Dissociation constants for CH004 (KD) were calculated by using Biacore evaluation software (Materials and Methods).

[1] = molecular target: T2, hCBS (GST-tagged CBS-413) (Homo sapiens, UniProt P35520); experiment: surface plasmon resonance (BIAcore T200); type: binding; conditions: 0.097–12.5 µM injected over hCBS-coated chip; read-out: KD (SPR)
T2 construct: hCBS-413 (a C-terminal truncated hCBS 1–413); made in house; host or cells: E. coli BL21
Protocol: Surface Plasmon Resonance assays (SPR) with a BIAcore T200 (GE Healthcare, Uppsala, Sweden) were used to observe the direct interaction between inhibitors and hCBS. The SPR assay was performed in running buffer (1× PBS with 0.05% P20) and the purified GST-tagged CBS-413 (500 μg/mL) was immobilized onto a flow cell of a CM5 sensor chip using a GST antibody coupling kit in running buffer. The KD values were determined with the Biacore evaluation 3.1 software.
as §1, with “(C) Inhibition of hCBS by CH004 as a function of Cys concentration in the presence of 100 μM PLP and the absence of Hcys (mixed inhibition constant αKi=26.4 ± 8 μM). (D) Inhibition of hCBS by CH004 as a function of Hcys concentration in the presence of 20 mM Cys and 100 μM PLP (mixed inhibition constant αKi’=7.2 ± 1.6 μM). Each point in the Lineweaver-Burk plots represents the means of triplicate.” left out, “5.” for “5. (E) Surface Plasmon Resonance assays analysis of the binding of CH004 to hCBS.”

[2] = system: mouse embryonic fibroblasts (MEF); experiment: lipid ROS (BODIPY 581/591 C11, flow cytometry); type: cell-based; conditions: low micromolar concentrations, 24 h
Protocol: To detect lipid peroxidation upon treatment with CH004, HepG2 cells or mouse embryonic fibroblasts (MEF) were seeded in 12-well plates with ~ 1.8 × 10^5 cells per well for 24 h. After treatment with the inhibitor for another 24 h, cells were stained with BODIPY® 581/591 C11 (Invitrogen) for 1 h at a final concentration of 2 μM at 37 °C[57]. The cells were then resuspended in an appropriate amount of PBS after being washed once with PBS. Lipid peroxidation, i.e., lipid ROS, was analyzed by detection of the fluorescence using an LSR Fortessa flow cytometer. The data were recorded at 530/30 nm (green fluorescent) and 670/30 nm (red fluorescent) wavelengths after excitation at 488 nm. A minimum of 20000 events was used for the analysis. All the experiments were independently repeated twice in triplicate.
Figure S15. The mode of actions for CH004 in cells. […] Indicated HEK293T stable cell lines were treated with CH004 at a concentration of 10 µM for 24 h, and the cell viability was then measured using the CellTiter96® Aqueous One Solution Cell Proliferation Assay (Promega). Means ± SDs (n=3). (B-C) CH004 or erastin triggers ferroptosis in mouse embryonic fibroblasts (MEF). […] The cell viability was accordingly quantified using the CellTiter96® Aqueous One Solution Cell Proliferation Assay (Promega) and the results were shown as percentages of DMSO (control, 100%). […]

Cn1nc(Cc2ccccc2)nc2c(=O)n(C)c(=O)nc1-2 [CH004, 3-benzyl-1,6-dimethylpyrimido[5,4-e][1,2,4]triazine-5,7(1H,6H)-dione]
reversibility of binding to hCBS (hCBS): binds reversibly; also recorded: reversibly binds
Kd [1]: 0.6 ± 0.3 µM
induction of ferroptosis (lipid ROS) in MEF [2]: ~2 fold
